The subject of one test is PC3 cells. The test can be described thus: TUNEL apoptosis assay, PC3. The class given is cell-based, human. Conditions: 24 hours incubation, FIG. 3. The protocol: Exponentially growing cells were seeded in 6-well tissue culture plates at a density of 50×10^4 cells/well and cultured for 36 hours at 37° C. in a humidified 5% CO2 atmosphere. The supernatant culture medium was carefully aspirated and replaced with fresh medium containing unconjugated EGF or EGF-P154 at a concentration of 10, 25, or 50 μg/ml. After a 36 hour incubation at 37° C. in a humidified 5% CO2 incubator, the supernatants were carefully aspirated and the cells were treated for 1–2 minutes with 0.1% trypsin. The detached cells were collected into a 15 ml centrifuge tube, washed with medium and pelleted by centrifugation at 1000 rpm for 5 minutes. Cells were resuspended in 50 μl of PBS, transferred to poly-L-lysine coated coverslips and allowed to attach for 15 minutes. The cells were washed once with PBS and incubated with equilibration buffer for 10 minutes at room temperature. […]
The cells were incubated with HI-P353 or HI-P219 for 24 hours, fixed, permeabilized, and visualized for DNA degradation in a TUNEL assay using digoxigenin-UTP-labeling kit. In the color photographs, red fluorescence represents nuclei stained with propidium iodide. […]

Test [1] has as its system MOLT-3 human leukemia cells. The test can be described thus: MTT cytotoxicity assay, MOLT-3. In kind it is cell-based. The conditions noted are these: Homo sapiens, MOLT-3, Table 5, fluoro-substituted, value ± spread. The protocol: (§1) The cytotoxicity assay of various compounds against human tumor cell lines was performed using the MTT (3-[4,5-dimethylthiazol-2-yl]-2,5-diphenyl tetrazolium bromide) assay (Boehringer Mannheim Corp., Indianapolis, Ind.). Briefly, exponentially growing tumor cells were seeded into a 96-well plate at a density of 2.5×10^4 cells/well and incubated for 36 hours at 37° C. prior to drug exposure. On the day of treatment, culture medium was carefully aspirated from the wells and replaced with fresh medium containing the quinazoline compounds at concentrations ranging from 0.1 to 250 μM. Triplicate wells were used for each treatment.
(§2) Human cell lines were obtained from American Type Culture Collection (Rockville, Md.) and maintained as a continuous cell line in Dulbecco's modified Eagles' medium supplemented with 10% fetal bovine serum and antibiotics. Cells used in this study include human leukemia cells (NALM-6 and MOLT-3), human breast cancer cells ([…]), human prostate cancer cells (PC3), and human brain tumor cells (U373).
(§3) The cells were incubated with the various compounds for 24–36 hours at 37° C. in a humidified 5% CO2 atmosphere. To each well, 10 μl of MTT (0.5 mg/ml final concentration) was added and the plates were incubated at 37° C. for 4 hours to allow MTT to form formazan crystals by reacting with metabolically active cells. The formazan crystals were solubilized overnight at 37° C. in a solution containing 10% SDS in 0.01 M HCl. The absorbance of each well was measured in a microplate reader (Labsystems) at 540 nm and a reference wavelength of 690 nm. To translate the OD 540 values into the number of live cells in each well, the OD 540 values were compared to those on standard OD 540—versus—cell number curves generated for each cell line. The percent survival was calculated using the formula:
(§4) [formula] The IC50 values were calculated by non-linear regression analysis. Detection of Apoptosis

Test [2] deals with PC3 human prostate cancer cells. The test can be described thus: MTT cytotoxicity assay, PC3. In kind it is cell-based. The conditions noted are these: Table 5, fluoro-substituted, value ± spread. Here is the method: as §1, §2, §3, §4
Test [3] deals with U373 human brain tumor cells. The test can be described thus: MTT cytotoxicity assay, U373. The class given is cell-based. Conditions: Homo sapiens, U373 MG, Table 5, fluoro-substituted, value ± spread. The protocol: as §1, §2, §3, §4
Background: Tetrazolium assays rely on reduction of a dye to a coloured formazan, in cell work by metabolically active cells.

Test [4] deals with NALM-6 human leukemia cells. In words: MTT cytotoxicity assay, NALM-6. The class given is cell-based. The conditions noted are these: Homo sapiens, NALM-6, Table 5, fluoro-substituted, value ± spread. The protocol: as §1, §2, §3, §4
In test [5] the test system is BT20 human breast cancer cells. The test can be described thus: MTT cytotoxicity assay, BT20. In kind it is cell-based. Conditions: Homo sapiens, BT-20, Table 5, fluoro-substituted, value ± spread. Here is the method:
as §1, §2, §3, §4

Each structure is given as a SMILES string. Some results are limits rather than exact numbers.

In the case of `COc1cc2ncnc(Nc3ccc(OC(F)(F)F)cc3)c2cc1OC` [HI-P219, 4-(4′-Trifluoromethoxylphenyl)-amino-6,7-dimethoxyqui-nazoline], in the test with PC3 cells, the “Induction of apoptosis (TUNEL)” value is given as “Apoptosis was induced”. Further, the IC50 is 41.3 ± 4.4 µM in test [1]; 58.3 ± 3.2 µM in test [2]; 83.6 ± 6.5 µM in test [3]; 22.3 ± 3 µM in test [4]; 44.2 ± 10.9 µM in test [5].

With `COc1cc2ncnc(Nc3cccc(F)c3)c2cc1OC` [HI-P224, 4-(3′-fluorophenyl)amino-6,7-dimethoxyquinazoline], the IC50 in test [1] was 23.3 ± 7.7 µM; in test [2], greater than 250 µM; in test [3] it was 22.4 ± 5.9 µM; in test [4] it was 20.2 ± 8.1 µM; in test [5], 58.3 ± 5.8 µM.

Take `COc1cc2ncnc(Nc3ccccc3C(F)(F)F)c2cc1OC` [HI-P228, 4-(2′-Trifluoromethylphenyl)-amino-6,7-dimethoxyquinazoline]: the IC50 was 237 ± 4.8 µM in test [1]; greater than 250 µM in test [2]; greater than 250 µM in test [3]; 57.3 ± 24.8 µM in test [4]; greater than 250 µM in test [5].

As to `COc1cc2ncnc(Nc3ccc(S(=O)(=O)F)cc3)c2cc1OC` [HI-P232, 4-[4′-benzenesulfanilylfluoride]-amino-6,7-dimethoxyquinazoline], the IC50 is 43.6 ± 2.3 µM in test [1]; 88.9 ± 17.2 µM in test [2]; 208 ± 18.1 µM in test [3]; 41.4 ± 6.9 µM in test [4]; 70.5 ± 8.2 µM in test [5].

With `COc1cc2ncnc(Nc3ccccc3F)c2cc1OC` [HI-P264, 4-(2′-Fluorophenyl)-amino-6,7-dimethoxyquinazoline], the IC50 in test [1] is 70.9 ± 17.3 µM; in test [2], greater than 250 µM; in test [3], 53.3 ± 6.7 µM; in test [4] it was 47 ± 19.5 µM; in test [5], 33.3 ± 7.5 µM.

Turning to `COc1cc2ncnc(Nc3ccc(C(c4ccc(N)cc4)(C(F)(F)F)C(F)(F)F)cc3)c2cc1OC` [HI-P352, 4-{4′-[2″-(4′′′-Aminophenyl)-hexafluoropropyl]phenyl}amino-6,7-dimethoxyquinazoline], the 50% inhibitory concentration (IC50) in test [1] stood at 21.8 ± 1.7 µM; in test [2], 72.6 ± 2.5 µM; in test [3] it was 65.5 ± 11.2 µM; in test [4] it was 7.1 ± 1.8 µM; in test [5], 50.3 ± 14.8 µM.

For the compound `COc1cc2ncnc(Nc3ccc(C(c4cccc(N)c4)(C(F)(F)F)C(F)(F)F)cc3)c2cc1OC` [HI-P353], the IC50 in test [1] stood at 17.4 ± 1.5 µM; in test [2], 64.9 ± 11.9 µM; in test [3] it was 14.5 ± 7.6 µM; in test [4], 6.1 ± 1.4 µM; in test [5], 14.1 ± 3.3 µM.

Turning to `COc1cc2ncnc(Nc3cccc(OC(F)(F)F)c3)c2cc1OC` [HI-P364, 4-(3′-Trifluoromethoxylphenyl)-amino-6,7-dimethoxyquinazoline], the half-maximal inhibitory concentration (IC50) in test [1] was 25.3 ± 9.1 µM; in test [2], greater than 250 µM; in test [3], 27.7 ± 1.2 µM; in test [4], 7.9 ± 1.9 µM; in test [5], 40.1 ± 8.6 µM.

On to `COc1cc2ncnc(Nc3ccccc3OC(F)(F)F)c2cc1OC` [HI-P365, 4-(2′-Trifluoromethoxylphenyl)-amino-6,7-dimethoxyquinazoline], for which the IC50 in test [1] was 111 ± 7.5 µM; in test [2], greater than 250 µM; in test [3] it was greater than 250 µM; in test [4], 86.5 ± 3.4 µM; in test [5] it was greater than 250 µM.

Turning to `COc1cc2ncnc(Nc3cc(C(F)(F)F)cc(C(F)(F)F)c3)c2cc1OC` [HI-P366, 4-(3′,5′-Ditrifluoromethylphenyl)-amno-6,7-dimethoxyquinazoline], the IC50 in test [1] was 137 ± 10.3 µM; in test [2], greater than 250 µM; in test [3], 55.5 ± 13.2 µM; in test [4] it was 52.8 ± 14 µM; in test [5], 61.7 ± 12.1 µM.

`COc1cc2ncnc(Nc3ccc(O)c(F)c3)c2cc1OC` [HI-P369, 4-(4′-Hydroxyl-3′-fluorophenyl)-amino-6,7-dimethoxyquinazoline]: the IC50 in test [1], in test [2], in test [3], in test [4] and in test [5] was greater than 250 µM each time.

On to `COc1cc2ncnc(Nc3cc(F)c(O)c(F)c3)c2cc1OC` [HI-P408, 4-(4′-Hydroxyl-3′,5′-difluorophenyl)-amino6,7-dimethoxy-quinazoline], for which the IC50 in test [1] is 228 ± 20.8 µM; in test [2] it was greater than 250 µM; in test [3] it was greater than 250 µM; in test [4] it was 116 ± 17.8 µM; in test [5], greater than 250 µM.

By IC50 is commonly meant the concentration at which inhibition is half-maximal. Read a low IC50 as higher potency.

These data come from patent US7038049B2, “Haloanilino quinazolines and therapeutic use thereof” (Parker Hughes Institute, priority 1999, dated 2006).
